What was measured:
PC3 cells [1] = assay: PC3 cell proliferation, 3D activity assay (3D culture, 14 days); format: cell-based, human; conditions: read-out: 3D inhibitory activity against PC3 cells IC50
Description: (§1) 2D activity assay: 1200 PC3 cells were seeded in a 96-well plate. After overnight adherence culture, A compound serially diluted was added. […] The growth of the cells was evaluated, and the IC50 of the compound inhibiting cell growth was calculated. 3D activity assay: PC3 cells were seeded in a 96-well plate at 1200 cells/well, and 3D culture was performed. 14 days after a compound serially diluted was added, the growth of the cells was measured. The inhibition percentage and IC50 of the compound were calculated compared to the DMSO control group.

FAK recombinant protein = FAK recombinant protein (Homo sapiens (Human), UniProt Q05397); assay: Inhibitory activity against FAK enzyme (HTRF, TK substrate); format: biochemical
Sequence of FAK recombinant protein (Q05397 whole entry): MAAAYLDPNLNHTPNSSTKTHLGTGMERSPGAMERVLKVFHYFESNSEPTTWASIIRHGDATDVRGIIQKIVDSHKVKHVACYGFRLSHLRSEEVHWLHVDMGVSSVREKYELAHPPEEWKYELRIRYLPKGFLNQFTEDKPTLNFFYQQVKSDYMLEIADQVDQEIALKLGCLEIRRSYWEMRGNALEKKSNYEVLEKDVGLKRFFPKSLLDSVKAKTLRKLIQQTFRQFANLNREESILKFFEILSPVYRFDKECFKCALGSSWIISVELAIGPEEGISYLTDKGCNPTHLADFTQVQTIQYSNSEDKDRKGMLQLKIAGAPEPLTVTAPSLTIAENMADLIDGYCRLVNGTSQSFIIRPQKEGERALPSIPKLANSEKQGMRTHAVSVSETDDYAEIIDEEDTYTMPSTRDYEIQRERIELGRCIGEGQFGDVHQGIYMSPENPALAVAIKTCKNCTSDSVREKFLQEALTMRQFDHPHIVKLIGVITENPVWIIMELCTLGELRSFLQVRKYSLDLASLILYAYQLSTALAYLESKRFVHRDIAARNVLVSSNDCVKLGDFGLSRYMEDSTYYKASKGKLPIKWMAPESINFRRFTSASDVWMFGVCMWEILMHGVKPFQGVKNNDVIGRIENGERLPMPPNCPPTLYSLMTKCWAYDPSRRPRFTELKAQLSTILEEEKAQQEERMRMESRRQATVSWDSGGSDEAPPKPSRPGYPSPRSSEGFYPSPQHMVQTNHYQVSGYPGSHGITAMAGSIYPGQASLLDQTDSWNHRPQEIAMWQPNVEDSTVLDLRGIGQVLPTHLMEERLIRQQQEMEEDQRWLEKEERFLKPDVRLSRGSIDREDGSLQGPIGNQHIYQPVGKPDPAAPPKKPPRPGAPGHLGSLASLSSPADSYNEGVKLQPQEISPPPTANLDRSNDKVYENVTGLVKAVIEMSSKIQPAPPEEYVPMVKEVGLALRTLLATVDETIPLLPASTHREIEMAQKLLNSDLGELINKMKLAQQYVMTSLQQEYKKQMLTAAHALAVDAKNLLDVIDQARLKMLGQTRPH
Description: A compound serially diluted with DMSO was mixed with a FAK recombinant protein. After the mixture was left to stand at room temperature for 10 min, a biotin-labeled TK substrate (TK) and ATP were added. […] The inhibition percentage and IC50 of the compound were calculated compared to the DMSO control group.

PC3 cells [2] = assay: PC3 cell proliferation, 2D activity assay (Cell Titer-Lumi, 72 h); format: cell-based, human
Description: as §1

[3] = Homo sapiens, PC-3, read-out: 2D inhibitory activity against PC3 cells IC50
[4] = read-out: 2D inhibitory activity against PC3 cells IC50

IC50 (PC3 cells [1]; Homo sapiens, PC-3, 336 h) [nM] | IC50 (FAK recombinant protein) [nM] | IC50 (PC3 cells [2]; [3]) [nM] | IC50 (PC3 cells [1]) [nM] | IC50 (PC3 cells [2]; [4]) [nM] | SMILES
5 to 50 | < 20 | > 2000 |  |  | CNC(=O)c1ccc(Nc2ncc(C(F)(F)F)c(Oc3cccc4c3C(=O)N(C)C43CC3)n2)c(OC)c1 [Compound 2]
< 5 | < 20 | > 2000 |  |  | COc1cc(C(=O)NC2CCN(C)CC2)c(Cl)cc1Nc1ncc(C(F)(F)F)c(Oc2cccc3c2C(=O)N(C)C32CC2)n1 [Compound 5]
< 5 | < 20 | > 2000 |  |  | COc1cc(C(=O)NC2(C)CCN(C)CC2)c(F)cc1Nc1ncc(C(F)(F)F)c(Oc2cccc3c2C(=O)N(C)C32CC2)n1 [Compound 7]
< 5 | < 20 | > 2000 |  |  | COc1cc(C(=O)NC2CC3(CCN(C)CC3)C2)ccc1Nc1ncc(C(F)(F)F)c(Oc2cccc3c2C(=O)N(C)C32CC2)n1 [Compound 9]
5 to 50 | < 20 | > 2000 |  |  | COc1cc(C(=O)NC2CCC3(CC2)CN(C)C3)c(F)cc1Nc1ncc(C(F)(F)F)c(Oc2cccc3c2C(=O)N(C)C32CC2)n1 [Compound 10]
5 to 50 | < 20 | > 2000 |  |  | COc1cc(C(=O)NC2CCC3(CC2)CN(C)C3)ccc1Nc1ncc(C(F)(F)F)c(Oc2cccc3c2C(=O)N(C)C32CC2)n1 [Compound 11]
< 5 | < 20 | > 2000 |  |  | COc1cc(C(=O)NC2CCC23CCN(C)CC3)c(F)cc1Nc1ncc(C(F)(F)F)c(Oc2cccc3c2C(=O)N(C)C32CC2)n1 (stereo not shown) [Compound 12]
< 5 | < 20 | > 2000 |  |  | COc1cc(C(=O)NC2CCC23CCN(C)CC3)ccc1Nc1ncc(C(F)(F)F)c(Oc2cccc3c2C(=O)N(C)C32CC2)n1 (stereo not shown) [Compound 13]
< 5 | < 20 | > 2000 |  |  | COc1cc(C(=O)NC2CCC3(CC2)CCN3C)c(F)cc1Nc1ncc(C(F)(F)F)c(Oc2cccc3c2C(=O)N(C)C32CC2)n1 (stereo not shown) [Compound 14]
< 5 | < 20 | > 2000 |  |  | COc1cc(C(=O)NC2CCC3(CC2)CCN3C)ccc1Nc1ncc(C(F)(F)F)c(Oc2cccc3c2C(=O)N(C)C32CC2)n1 (stereo not shown) [Compound 15]
< 5 | < 20 | > 2000 |  |  | COc1cc(C(=O)NC2COC3(CCN(C)CC3)C2)c(F)cc1Nc1ncc(C(F)(F)F)c(Oc2cccc3c2C(=O)N(C)C32CC2)n1 (stereo not shown) [Compound 16]
< 5 | < 20 | > 2000 |  |  | COc1cc(C(=O)NC2COC3(CCN(C)CC3)C2)ccc1Nc1ncc(C(F)(F)F)c(Oc2cccc3c2C(=O)N(C)C32CC2)n1 (stereo not shown) [Compound 17]
5 to 50 | < 20 | > 2000 |  |  | COc1cc(C(=O)NC2CCC3(CCN(C)CC3)C2)c(F)cc1Nc1ncc(C(F)(F)F)c(Oc2cccc3c2C(=O)N(C)C32CC2)n1 (stereo not shown) [Compound 18]
5 to 50 | < 20 | > 2000 |  |  | COc1cc(C(=O)NC2CCC3(CCN(C)CC3)C2)ccc1Nc1ncc(C(F)(F)F)c(Oc2cccc3c2C(=O)N(C)C32CC2)n1 (stereo not shown) [Compound 19]
< 5 | < 20 | > 2000 |  |  | COc1cc(C(=O)NC2CCC3(CC2)CCN(C)C3)c(F)cc1Nc1ncc(C(F)(F)F)c(Oc2cccc3c2C(=O)N(C)C32CC2)n1 (stereo not shown) [Compound 20]
< 5 | < 20 | > 2000 |  |  | COc1cc(C(=O)NC2CCC3(CC2)CCN(C)C3)ccc1Nc1ncc(C(F)(F)F)c(Oc2cccc3c2C(=O)N(C)C32CC2)n1 (stereo not shown) [Compound 21]
5 to 50 | < 20 | > 2000 |  |  | COc1cc(C(=O)NC2CCC3(CC2)CCN(C)CC3)c(F)cc1Nc1ncc(C(F)(F)F)c(Oc2cccc3c2C(=O)N(C)C32CC2)n1 [Compound 22]

IC50 (PC3 cells [1]; Homo sapiens, PC-3, 336 h) [nM] | IC50 (FAK recombinant protein) [nM] | IC50 (PC3 cells [2]; [3]) [nM] | IC50 (PC3 cells [1]) [nM] | IC50 (PC3 cells [2]; [4]) [nM] | SMILES
5 to 50 | < 20 | > 2000 |  |  | COc1cc(C(=O)NC2CCC3(CC2)CCN(C)CC3)ccc1Nc1ncc(C(F)(F)F)c(Oc2cccc3c2C(=O)N(C)C32CC2)n1 [Compound 23]
5 to 50 | < 20 | > 2000 |  |  | COc1cc(C(=O)NC2CCC3(CCN(C)C3)C2)c(F)cc1Nc1ncc(C(F)(F)F)c(Oc2cccc3c2C(=O)N(C)C32CC2)n1 (stereo not shown) [Compound 24]
< 5 | < 20 | > 2000 |  |  | COc1cc(C(=O)NC2CCC3(CCN(C)C3)C2)ccc1Nc1ncc(C(F)(F)F)c(Oc2cccc3c2C(=O)N(C)C32CC2)n1 (stereo not shown) [Compound 25]
< 5 | < 20 | > 2000 |  |  | COc1cc(C(=O)NC2COC3(CCN(C)C3)C2)c(F)cc1Nc1ncc(C(F)(F)F)c(Oc2cccc3c2C(=O)N(C)C32CC2)n1 (stereo not shown) [Compound 26]
5 to 50 | < 20 | > 2000 |  |  | COc1cc(C(=O)NC2CCN3CCN(C)C3C2)ccc1Nc1ncc(C(F)(F)F)c(Oc2cccc3c2C(=O)N(C)C32CC2)n1 (stereo not shown) [Compound 28]
< 5 | < 20 | > 2000 |  |  | COc1cc(C(=O)NC2CCN3CCOC3C2)ccc1Nc1ncc(C(F)(F)F)c(Oc2cccc3c2C(=O)N(C)C32CC2)n1 (stereo not shown) [Compound 29]
5 to 50 | < 20 | > 2000 |  |  | COc1cc(C(=O)NC2CCN3CCN=C3C2)ccc1Nc1ncc(C(F)(F)F)c(Oc2cccc3c2C(=O)N(C)C32CC2)n1 (stereo not shown) [Compound 30]
5 to 50 | < 20 | > 2000 |  |  | COc1cc(C(=O)NC2CCn3ccnc3C2)ccc1Nc1ncc(C(F)(F)F)c(Oc2cccc3c2C(=O)N(C)C32CC2)n1 (stereo not shown) [Compound 31]
5 to 50 | < 20 | > 2000 |  |  | COc1cc(C(=O)NC2CCn3cnnc3C2)ccc1Nc1ncc(C(F)(F)F)c(Oc2cccc3c2C(=O)N(C)C32CC2)n1 (stereo not shown) [Compound 32]
< 5 | < 20 | > 2000 |  |  | COc1cc(C(=O)NC2CCN(C)CC2F)ccc1Nc1ncc(C(F)(F)F)c(Oc2cccc3c2C(=O)N(C)C32CC2)n1 (stereo not shown) [Compound 33]
< 5 | < 20 | > 2000 |  |  | COc1cc(C(=O)NC2CCN(C)CC2OC)ccc1Nc1ncc(C(F)(F)F)c(Oc2cccc3c2C(=O)N(C)C32CC2)n1 (stereo not shown) [Compound 34]
< 5 |  | > 2000 |  |  | COc1cc(C(=O)NC2CCNCC2)ccc1Nc1ncc(C(F)(F)F)c(Oc2cccc3c2C(=O)N(C)C32CC2)n1 [Compound 35, 3-Methoxy-4-((4-((2′-methyl-3′-oxospiro[cyclopropane-1,1′-isoindolin]-4′-yl)oxy)-5-(trifluoromethyl)pyrimidin-2-yl)amino)-N-(piperidin-4-yl)benzamide]
< 5 | < 20 | > 2000 |  |  | CCN1CCC(NC(=O)c2ccc(Nc3ncc(C(F)(F)F)c(Oc4cccc5c4C(=O)N(C)C54CC4)n3)c(OC)c2)CC1 [Compound 37]
 |  |  | 5 to 50 | > 2000 | COc1cc(C(=O)N2CCC3(CCN(C)C3)C2)ccc1Nc1ncc(C(F)(F)F)c(Oc2cccc3c2C(=O)N(C)C32CC2)n1 (stereo not shown) [Compound 58]
5 to 50 |  | > 2000 |  |  | COc1cc(C(=O)NC2(C)CCN(C)CC2)ccc1Nc1ncc(Cl)c(Oc2cccc3c2C(=O)N(C)C32CC2)n1 [Compound 118]
 |  |  | 5 to 50 | > 2000 | COc1cc(N2CC3CCN(C)C3C2)ccc1Nc1ncc(Cl)c(Oc2cccc3c2C(=O)N(C)C32CC2)n1 (stereo not shown) [Compound 171]
> 50 |  | > 2000 |  |  | COc1cc(C(=O)NC2CCN(C)CC2)c(F)cc1Nc1ncc(Cl)c(Oc2cccc3c2C(=O)N(C)C32CCCC2)n1 [Compound 209]

Reference: US20250154134A1, “COMPOUND AS FAK INHIBITOR AND USE THEREOF” (WIGEN BIOMEDICINE TECHNOLOGY (SHANGHAI) CO., LTD., priority 2022, published 2025)
